Patent US20250144205A1, “COMPOSITIONS AND METHODS FOR TREATING INFECTIOUS DISEASES” (priority 2022, published 2025)

System: TSE-induced lung injury (TSE-LI)
Test: chronic tobacco smoke exposure induced lung injury (TSE-LI) in wild-type mice
Type: in vivo
Description: Recombinant full-length U5a protein (U5a^FL), extracellular domain of U5a^FL (U5a^ECD) and U5a^ECD-specific monoclonal antibody (U5a^mAb, the 17C9 1 anti-U5a antibody comprising the sequences of SEQ ID NOs. 204 and 211) mitigated chronic TS exposure (TSE) induced lung injury (TSE-LI) in wild-type (WT) mice. WT mice were kept in ambient AIR or exposed to tobacco smoke (TSE) for 4 h/day 5 days a week. After 16 weeks, WT mice with TSE-LI were left untreated (None) or treated with 2.5 mg/kg of U5a^FL, U5a^ECD and U5amAb 5 days a week for 4 weeks by IP injection. Total lung RNA were analyzed for MUC5AC (M5Ac) (FIG. 12A), FOXA2 (FIG. 12B) and surfactant protein-C(SP-C) (FIG. 12C) mRNA by qPCR. Lung sections of mice treated as in FIG. 12A were subjected to IHC analysis for M5Ac (FIG. 12D). We found increased expression of U5a in AECs and ATII cells in lungs of patients with COPD and mice with TSE-LI. […] In addition, increased surfactant protein-C(SP-C) indicates improved survival of ATII cells, which is otherwise reduced due to increased TSE-induced senescence and apoptosis of ATII cells seen in mice with TSE-LI left untreated.

“U5a^ECD: extracellular domain of U5a^FL; ECD of UNC5A given as SEQ ID NO: 103” was tested, and the “MUC5AC (M5Ac) expression (lung mRNA by qPCR, IHC)” value (WT mice with TSE-LI, 2.5 mg/kg IP 5 days a week for 4 weeks, FIG. 12A, 12D) was “significantly inhibits”, the “FOXA2 mRNA (qPCR)” value (WT mice with TSE-LI, 2.5 mg/kg IP 5 days a week for 4 weeks, FIG. 12B) was “inducing” and the “surfactant protein-C (SP-C) mRNA (qPCR)” value (WT mice with TSE-LI, 2.5 mg/kg IP 5 days a week for 4 weeks, FIG. 12C) was “increased”. For the same substance, the “chronic TS exposure (TSE) induced lung injury (TSE-LI)” value (WT mice, 2.5 mg/kg IP 5 days a week for 4 weeks after 16 weeks TSE) was “mitigated”.
